According to US20120231069A1, “Targeted Nanocarrier Systems for Delivery of Actives Across Biological Membranes” (Access Pharmaceuticals, Inc., priority 2011, published 2012):

System: Diabetic Rats
Assay: Blood glucose reduction in streptozotocin-diabetic rats after oral gavage
Format: in vivo
Details: diabetic female Wistar rats, oral gavage 0.5 mL of 20 IU/mL insulin
Description: Female Wistar rats (200 g) were housed at room temperature with 12 h light/dark cycle. All animals had ad libitum access to a standard chow diet and water except wherever indicated. The rats were allowed to acclimatize for a period of 7 days in the new environment before initiation of the experiment. After randomization into groups of 4, each rat was marked and followed individually throughout the study. All rats were fasted for 1 hour. Streptozotocin obtained from Sigma (98% HPLC) was administered by IV injection at a dose of 55-65 mg/kg in 0.1M citrate buffer (pH 4.5) followed by an additional 1 hour fast. Blood was collected daily from the tail and blood glucose levels were measured using an Accu-Chek® (Compact Plus-Roche) blood glucose monitor. When all animals in the group had achieved a blood glucose level of >250 mg/dl (5 days) the insulin metabolism phase was begun. All animals were fasted for 1 hour and a blood glucose measurement taken (T=0). Groups of rats were dosed by oral gavage with 0.5 mL of an aqueous preparation of insulin nanoparticles (containing 20 IU/mL of insulin) of example 9, or 0.5 mL of an aqueous solution of bovine insulin (20 IU/mL). The animals were then fasted for another hour and blood glucose levels were measured at 1, 4, 8 and 24 hours after dosing.

plain insulin formulation: aqueous solution of bovine insulin (20 IU/mL), oral comparator
increase in blood glucose level (compared to T=0) (8 hours after dosing): 1%
increase in blood glucose level (compared to T=0) (24 hours after dosing): 21%
